Results published in patent publication US7960569B2, “Indole antagonists of P2Y1 receptor useful in the treatment of thrombotic conditions” (Bristol-Myers Squibb Company, priority 2006, dated 2011).
Counter-ions that a name gives are not always drawn.

Biological target: T1, cloned human P2Y1 receptors (Homo sapiens, UniProt P47900)
T1 construct: expressed in transfected cells
Experiment: Binding Assay A: membrane binding assay, inhibition of [33P] 2MeS-ADP binding (WGA FlashPlates)
Description: A membrane binding assay was used to identify inhibitors of [^33P] […] The cDNA clone for human P2Y1 was obtained from Incyte Pharmaceuticals and its sequence confirmed by established techniques (for a compendium of techniques used see Ausubel, F. et al. Current Protocols in Molecular Biology 1995 John Wiley and Sons, NY, N.Y.). The essential coding sequences were subcloned into pcDNA 3.1 (Invitrogen) to produce a P2Y1 expression construct. This construct was then transfected into the human embryonic kidney cell line HEK-293 and stable transfectants selected in Genetcin® (G418 sulfate; Life Technologies). […] Membranes were prepared by growing HEK293 #49 in 150 mm dishes in DMEM/10% FBS in the presence of 1 mg/ml G418 until cells were 80-90% confluent. Plates were then washed with cold (4° C.) D-PBS twice and cells harvested by scraping into 10 mL D-PBS. Cells were pelleted by centrifugation (1,000 g, 10 min, 4° C.) and the resulting pellet resuspended in Lysis Buffer (10 mM Tris (7.4), 5 mM MgCl2 containing Complete® protease inhibitor cocktail (Roche Cat #1873580) as recommended by the manufacturer). The suspension was then homogenized in a Dounce homogenizer (10-15 strokes; B pestle, on ice) and the homogenate spun at 1,000 g, 4° C., 5 min to pellet large debris. The supernatant was centrifuged at 150,000 g, 4° C., for 1 hour and the resulting membrane pellet resuspended in 0.5-1 mL of Buffer B (15 mM HEPES (7.4), 145 mM NaCl, 0.1 mM MgCl2, 5 mM EDTA, 5 mM KCl) and stored at −70° C. until used.
Binding reactions were performed in WGA FlashPlates (PerkinElmer Life Sciences, Cat # SMP105A) in a volume of 200 μL containing ˜45 fmol of P2Y1 receptor (5 μg of total protein), 0.5 nM [^33P] […] Reactions were allowed to proceed to completion at room temperature for 1 hour and then the aqueous solution aspirated. Plates were sealed and the residual [^33P] bound to the plate determined by scintillation counting.

T1 sequence (P47900 whole entry): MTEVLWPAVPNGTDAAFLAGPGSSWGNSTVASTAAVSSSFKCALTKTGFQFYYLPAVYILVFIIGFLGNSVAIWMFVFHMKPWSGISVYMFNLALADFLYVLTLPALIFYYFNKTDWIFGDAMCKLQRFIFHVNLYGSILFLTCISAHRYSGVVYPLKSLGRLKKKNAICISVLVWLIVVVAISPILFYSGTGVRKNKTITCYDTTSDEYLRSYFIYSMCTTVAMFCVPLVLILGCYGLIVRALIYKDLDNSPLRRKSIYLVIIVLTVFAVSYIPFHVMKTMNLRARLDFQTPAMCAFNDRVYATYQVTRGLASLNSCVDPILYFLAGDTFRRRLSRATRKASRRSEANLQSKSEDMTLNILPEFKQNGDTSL

| Ki | SMILES |
| --- | --- |
| 1210 nM | CC(C)c1ccccc1-n1cc(C(=O)Nc2ccc(N3CCOCC3)cc2)c2ccccc21 [Example 53, 1-(2-isopropylphenyl)-N-(4-morpholinophenyl)-1H-indole-3-carboxamide 2,2,2-trifluoroacetic acid salt] |
| 75 nM | CC(C)c1ccccc1-c1cn(C(=O)Nc2ccccc2)c2ccccc12 [Example 1, 3-(2-isopropylphenyl)-N-phenyl-1H-indole-1-carboxamide] |
| 1300 nM | CN(C)Cc1ccccc1-c1cn(C(=O)Nc2ccc(OC(F)(F)F)cc2)c2ccccc12 [Example 33, 3-(2-((dimethylamino)methyl)phenyl)-N-(4-(trifluoromethoxy)phenyl)-1H-indole-1-carboxamide bis(2,2,2-trifluoroacetic acid) salt] |
| 117 nM | CC(C)c1ccccc1-c1cn(C(=O)Nc2ccc(N(C)C)cc2)c2ccccc12 [Example 12, N-(4-(dimethylamino)phenyl)-3-(2-isopropylphenyl)-1H-indole-1-carboxamide 2,2,2-trifluoroacetic acid salt] |
| 144 nM | CC(C)c1ccccc1-c1cn(C(=O)Nc2ccc(-c3ccccc3)cc2)c2ccccc12 [Example 27, N-(biphenyl-4-yl)-3-(2-isopropylphenyl)-1H-indole-1-carboxamide] |
| 96 nM | CC(C)c1ccccc1-c1cn(C(=O)Nc2ccc(I)cc2)c2ccccc12 [Example 40, N-(4-iodophenyl)-3-(2-isopropylphenyl)-1H-indole-1-carboxamide] |
